Assay results: US20230416239A1, “COMPOUNDS AND METHODS FOR TREATING A CYTOKINE-MEDIATED DISEASE” (CONSERVATOIRE NATIONAL DES ARTS ET MÉTIERS, priority 2020, published 2023)

How the values were obtained:
[1] = target: IL-6 (Homo sapiens, UniProt P05231); assay: Immunoassay binding test, IL-6 (gp130 receptor, IL-6Ra present); conditions: IL-6Ra 200 ng/ml
Experimental: (§1) Microtiter plates (96 wells) are covered with 100 μl of receptor per well, and incubated overnight at 4° C. The following day, after 2 washes in PBS/Tween20, the plates are saturated with 150 μl of PBS/BSA 2% per well, for 2 h at 37° C. Synthetic compounds are diluted in series (final concentrations: 100 to 0.78 μM) then a fixed amount of cytokine in PBS/BSA 1% is added to the compounds, in a final volume of 120 μl per well. […] The cytokine is diluted in series (six concentrations) in a final volume of 120 μl per well. The cytokine is used in the absence of small molecule as well as the range of SPD304 as positive controls and the absence of cytokine and synthetic molecule as negative control. The different mixtures are incubated for 2 h at 37° C. 100 μl of each mixture are then transferred to the microtiter plate, respecting the plate plan previously defined and incubated overnight at 4° C. After three washes, 100 μl of biotinylated anti-cytokine secondary antibody are added to each well, then incubated for 2 h at 37° C. After three washes, 100 μl of Avidin-HRP (1/500th dilution) are added and incubated for 30 minutes at 37° C. […] The plates are then read with a spectrophotometer at 450 nm, measuring the optical density for each well.
(§2) This binding test is carried out with different cytokines: TNFa, IL-4, IL-6 and IL-13. For IL-6, the incubation of molecules with the cytokine also requires the presence of IL-6Ra at a final concentration of 200 ng/ml.
(§3) The final concentrations used for each of the cytokines are presented below: […]

[2] = target: IL-13 (Homo sapiens, UniProt P35225); assay: Immunoassay binding test, IL-13; conditions: for IC50: IL-13 400 ng/ml, receptor 100 ng/ml, read-out: BINDING IL13 IC50
Experimental: as §1, with “The cytokine is used in the absence of small molecule as well as the range of SPD304 as positive controls and the absence of cytokine and synthetic molecule as negative control.” left out
as §2, §3

[3] = target: T1, IL-4 (Homo sapiens, UniProt P05112); assay: Immunoassay binding test, IL-4; conditions: for IC50: IL-4 400 ng/ml, receptor 100 ng/ml, read-out: BINDING IL4 IC50
T1 sequence (P05112 25-153): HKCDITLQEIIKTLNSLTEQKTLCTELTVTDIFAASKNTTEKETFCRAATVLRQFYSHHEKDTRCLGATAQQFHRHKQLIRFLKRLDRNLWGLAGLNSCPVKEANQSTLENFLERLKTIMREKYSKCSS
Experimental: as §1, §2, §3

[4] = target: TNFa/TNFRI interaction (Homo sapiens, UniProt P01375); assay: TNFa/TNFRI interaction displacement test; assay type: binding; conditions: for Displacement (%): compounds at 50 μM, human TNFRI 100 ng/ml; for Displacement EC50 TNFa in presence of compound: Difference: Compound EC50 minus SPD304 EC50;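 as to Displacement EC50 TNFa in presence of compound: Difference: SPD304 reference at 20 µM final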
Experimental: Microtiter plates (96 wells) are covered with 100 μl per well of human TNFRI, at a concentration of 100 ng/ml, then incubated overnight at 4° C. The following day, after two washes in PBS/Tween20, the plates are saturated with 150 μl of PBS/BSA 2% for 2 h at 37° C.
100 μl of each mixture are then transferred to the microtiter plate, respecting the established plate plan and incubated overnight at 4° C.
After three washes, 100 μl of biotinylated anti-cytokine secondary antibody are added to each well and incubated for 2 h at 37° C. After three washes, 100 Avl Avidin-HRP (dilution 1/500th) are added and incubated for 30 minutes at 37° C. […] The plates are then read with a spectrophotometer at 450 nm, measuring the optical density (OD) for each well.

[5] = target: TNFα (Homo sapiens, UniProt P01375); assay: Immunoassay binding test, TNFa; conditions: compounds 100 to 0.78 μM; TNFα 10 ng/ml, receptor 100 ng/ml; read-out: BINDING TNF IC50
Experimental: as §1, with “C.” for “C. Synthetic compounds are diluted in series (final concentrations: 100 to 0.78 μM) then a fixed amount of cytokine in PBS/BSA 1% is added to the compounds, in a final volume of 120 μl per well.”, “The cytokine is used in the absence of small molecule as well as the range of SPD304 as positive controls and the absence of cytokine and synthetic molecule as negative control.” left out
as §2, §3

Chain of IL-6 (P05231 30-212, species assumed): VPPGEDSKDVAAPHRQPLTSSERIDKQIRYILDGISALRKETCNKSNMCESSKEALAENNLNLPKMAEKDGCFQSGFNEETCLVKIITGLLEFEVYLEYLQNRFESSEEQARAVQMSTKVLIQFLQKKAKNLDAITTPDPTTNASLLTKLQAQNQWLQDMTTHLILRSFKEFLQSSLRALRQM
Chain of TNFα (P01375 77-233 limits assumed, species assumed): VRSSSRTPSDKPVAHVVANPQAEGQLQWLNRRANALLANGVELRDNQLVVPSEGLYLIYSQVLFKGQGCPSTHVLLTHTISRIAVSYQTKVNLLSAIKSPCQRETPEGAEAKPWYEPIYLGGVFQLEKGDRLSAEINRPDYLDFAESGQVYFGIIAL
Chain of TNFa/TNFRI interaction (P01375 77-233 limits assumed): as the sequence (P01375 77-233 limits assumed, species assumed) above
Chain of IL-13 (P35225 25-146, species assumed): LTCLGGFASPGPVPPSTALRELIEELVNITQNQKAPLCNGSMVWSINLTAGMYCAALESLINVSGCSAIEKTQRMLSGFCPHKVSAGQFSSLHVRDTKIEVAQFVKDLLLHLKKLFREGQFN

| SMILES | BINDING IL6 % Neutra at 100 μM [1] [%] | BINDING IL13 % Neutra at 100 μM [2] [%] | IC50 [2] [µM] | BINDING IL4 % Neutra at 100 μM [3] [%] | IC50 [3] [µM] | Displacement (%) [4] [%] | IC50 [5] [µM] | Displacement EC50 TNFa in presence of compound: Difference [4] [ng/mL] |
| --- | --- | --- | --- | --- | --- | --- | --- | --- |
| CCN(CCOCCN(Cc1cccnc1F)Cc1cn(S(=O)(=O)c2ccccc2)c2ccccc12)C1CCCCC1 [Compound 93, N-ethyl-N-(2-(2-(((2-fluoropyridin-3-yl)methyl)((1-(phenylsulfonyl)-1H-indol-3-yl)methyl)amino)ethoxy)ethyl)cyclohexanamine] | 0 | 91.3 | 7.8 | 89.8 | 2.8 | 160 | 11.2 | – |
| FC(F)(F)c1cccc(-n2cc(CN(CCNC3CCCCC3)Cc3ccncc3)c3ccccc32)c1 [Compound 29] | 17.3 | 86.8 | > 50 | 96.4 | 6.2 | 103 | 18.3 | – |
| O=S(=O)(c1ccccc1)n1cc(CN(CCCCCNC2CCCCC2)Cc2ccnc(F)c2)c2ccccc21 [Compound 47, N1-cyclohexyl-N5-((2-fluoropyridin-4-yl)methyl)-N5-((1-(phenylsulfonyl)-1H-indol-3-yl)methyl)pentane-1,5-diamine] | 0 | 93.1 | 17.8 | 93.3 | 5.5 | 99 | 8.9 | – |
| CN(CCCN(Cc1cccnc1)Cc1cn(-c2cccc(C(F)(F)F)c2)c2ccccc12)C1CCCCC1 [Compound 13] | 8.9 | 85.2 | > 50 | 97.9 | 5 | 186 | 4.3 | 6.4 |
| O=S(=O)(c1ccccc1)n1cc(CN(CCCCNC2CCCCC2)Cc2cccc(F)n2)c2ccccc21 [Compound 45, N1-cyclohexyl-N4-((6-fluoropyridin-2-yl)methyl)-N4-((1-(phenylsulfonyl)-1H-indol-3-yl)methyl)butane-1,4-diamine] | 0 | 86.5 | > 50 | 90.5 | 7.6 | 114 | 10.4 | – |
| O=S(=O)(c1ccccc1)n1cc(CN(CCCCN(C2CCC2)C2CCC2)Cc2cccnc2F)c2ccccc21 [Compound 86] | 6 | 87.9 | > 50 | 92.6 | 4.9 | 188 | 5 | – |
| CN(CCCCCN(Cc1ccncc1)Cc1cn(-c2cccc(C(F)(F)F)c2)c2ccccc12)C1CCCCC1 [Compound 39] | 23.7 | 94.8 | > 50 | 96 | 4.7 | 159 | 14.7 | 4.2 |
| CCCN(CCOCCN(Cc1cccnc1F)Cc1cn(S(=O)(=O)c2ccccc2)c2ccccc12)C1CCCC1 [Compound 108, N-(2-(2-(((2-fluoropyridin-3-yl)methyl)((1-(phenylsulfonyl)-1H-indol-3-yl)methyl)amino)ethoxy)ethyl)-N-propylcyclopentanamine] | 0 | 58.8 | 40.4 | 76.7 | 9.1 | 165 | 9.6 | – |
| CN(CCCCN(Cc1cccnc1F)Cc1cn(S(=O)(=O)c2ccccc2)c2ccccc12)C1CCCCCC1 [Compound 74, N′-cycloheptyl-N^4-((2-fluoropyridin-^3-yl)methyl)-N′-methyl-N^4-((1-(phenylsulfonyl)-1H-indol-^3-yl)methyl)butane-1,4-diamine] | 0 | 87.3 | > 50 | 91.9 | 5.7 | 160 | 6.6 | – |
| O=S(=O)(NCCCCN(Cc1cccnc1F)Cc1cn(S(=O)(=O)c2ccccc2)c2ccccc12)N1CCCCC1 [Compound 80] | 0 | 0 | – | 29.1 | > 100 | 0 | > 50 | – |
| FC(F)(F)c1cccc(-n2cc(CN(CCCCNC3CCCCC3)Cc3cccnc3)c3ccccc32)c1 [Compound 21] | 3.7 | 94.6 | 19.5 | 98 | 2.1 | 141 | 14.1 | 4.9 |
| O=S(=O)(c1ccccc1)n1cc(CN(CCCCCNC2CCCCC2)Cc2ccc(F)nc2)c2ccccc21 [Compound 56] | 0 | 93.4 | 10.2 | 91.9 | 2.6 | 124 | 13.2 | – |
